# Results as given in US4255444A, “4-Hydroxy-2-pyrone derivatives having antihyperlipaemic activity” (Sankyo Company Limited, priority 1978, dated 1981).
# Molecular target: cholesterol biosynthesis (crude enzyme extracted from rat liver)
# Test: Inhibition of cholesterol biosynthesis by crude enzyme extracted from rat liver (radioactive acetic acid incorporation, digitonin precipitation)
# Assay type: biochemical
# Details: 37° C., 60 minutes, compound added at beginning of reaction
# Experimental: Crude enzyme extracted from rat liver was reacted with radioactive acetic acid at 37° C. for 60 minutes. The radioactive cholesterol thus biosynthesized was saponified and precipitated with digitonin, and the radioactivity was measured to determine the amount of cholesterol produced. The reaction was repeated, but adding one of the compounds of the invention listed in the following Table at the beginning of the reaction, and the amount of cholesterol biosynthesized was again determined, to give a quantitative measurement of the inhibitory effect of the compounds of the invention. The concentrations (μg/ml) of the compounds of the invention and of a known compound (clofibrate) which gave approximately 50% inhibition of cholesterol biosynthesis are reported in the following Table as I50 values [see Bricker et al, The Journal of Biological Chemistry, 247, 4914 (1972)]. The compounds of the invention are identified in the following Table by the numbers heretofore assigned to them.
row,I50 (concentration giving approximately 50% inhibition of cholesterol biosynthesis),Compound
1,42.3 µg/mL,"CC(Oc1ccccc1)C1CC(O)CC(=O)O1 (centres unmarked) [Compound No. 2, 4-Hydroxy-6-(1-phenoxyethyl)-3,4,5,6-tetrahydro-2H-pyran-2-one]"
2,250 to 300 µg/mL,"CCOC(=O)C(C)(C)Oc1ccc(Cl)cc1 [Clofibrate, reference compound]"
3,0.75 µg/mL,"Cc1ccc2ccccc2c1CCC1CC(O)CC(=O)O1 (centres unmarked) [Compound No. 1, 4-Hydroxy-6-[2-(2-methyl-1-naphthyl)ethyl]-3,4,5,6-tetrahydro-2H-pyran-2-one]"
4,6.4 µg/mL,"O=C1CC(O)CC(CCc2cccc3ccccc23)O1 (centres unmarked) [Compound No. 3, 4-Hydroxy-6-[2-(1-naphthyl)ethyl]-3,4,5,6-tetrahydro-2H-pyran-2-one]"
5,21.3 µg/mL,"CC(C)(Oc1ccc(Cl)cc1)C1CC(O)CC(=O)O1 (centres unmarked) [Compound No. 4, 6-[1-(4-Chlorophenoxy)-1-methylethyl]-4-hydroxy-3,4,5,6-tetrahydro-2H-pyran-2-one]"
